Laboratory results as given in US20230398090A1, “METHOD OF TREATING CORONAVIRUS INFECTION BY ADMINISTRATION OF ETHYL MERCURY OR THIOL DERIVATIVE THEREOF” (BEECH TREE LABS, INC., priority 2020, published 2023).
Like-named read-outs stand apart in the source and are kept apart here.

Tests used:
coronavirus (SARS-CoV-2) = conditions: for time until all of the subject's symptoms resolved after initial treatment: 200 ng sublingual every 15 minutes for one hour, then hourly until bedtime
[1] = tested on: pro-inflammatory cytokines; anti-inflammatory genes; conditions: genomic studies, no details given
[2] = Example 4: person, after less than 48 hours of therapy

Compound: C[CH2][Hg][S]c1ccccc1C(=O)[O-].[Na+] [thimerosal]
- time until all of the subject's symptoms resolved after initial treatment (coronavirus (SARS-CoV-2); Example 1: person, positive SARS-CoV-2 test, fever 104° F., shortness of breath, cough): 20 to 24 h
- time until all of the subject's symptoms resolved after initial treatment (coronavirus (SARS-CoV-2); Example 2: person, symptoms of SARS-CoV-2 infection (fever 103° F., lethargy, shortness of breath, achiness)): ≤ 24 h
- weakness (coronavirus (SARS-CoV-2); Example 3: person, 72 hours after initial treatment): only partially improved
- time until all of the subject's symptoms resolved after initial treatment (with the exception of weakness) (coronavirus (SARS-CoV-2); Example 3: person, presumptive SARS-CoV-2 (fever, weakness, shortness of breath, cough), 200 ng sublingual, day 1 schedule, then six times daily on days two and three): 72 h
- chest pain (coronavirus (SARS-CoV-2); [2]): not completely eliminated
- subject-reported energy, appetite and taste (coronavirus (SARS-CoV-2); [2]): increased energy, increased appetite and improved ability to taste
- time of therapy until subject reported diminution of all symptoms (coronavirus (SARS-CoV-2); Example 4: person, positive SARS-CoV-2 test (cough, mild fever, aching, decreased energy, stomach pain), 200 ng sublingual, day 1 schedule, then six times daily on day two): less than 48 hours
- effect on other anti-inflammatory genes [1]: up-regulating
- effect on several pro-inflammatory cytokines [1]: down-regulates
